Measured values taken from PubChem BioAssay AID1963867 (Molecular Pharmacology Branch, DTP, NCI, 2024).

Test system: KRAS-mutant PDC tumor spheroid with HUVEC/MSC, viability
Assay: Anticancer human tumor 327498-153-R-J2-PDC patient-derived uterine carcinosarcoma cell line growth inhibition [KRAS2]
Conditions: for viability, T/C: stronger effect = lower value
In short: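 Combination screen of spheroid viability in tumor-cell co-cultures with endothelial (HUVEC) and mesenchymal stem cell stroma. Each agent was tested in half-log dilutions, topping at clinical Cmax or at 10 microM without a known Cmax.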

[1] = curve of first compound, second compound 0.1 µM
[2] = curve of first compound, second compound 0.316 µM
[3] = curve of first compound, second compound 1 µM
[4] = curve of first compound, second compound 3.16 µM
[5] = curve of first compound, second compound 10 µM
[6] = second compound 0.1 µM, first compound 0.0316 µM
[7] = second compound 0.1 µM, first compound 0.1 µM
[8] = second compound 0.1 µM, first compound 0.316 µM
[9] = second compound 0.1 µM, first compound 1 µM
[10] = second compound 0.1 µM, first compound 3.16 µM
[11] = second compound 0.1 µM, first compound 10 µM
[12] = second compound 0.316 µM, first compound 0.0316 µM
[13] = second compound 0.316 µM, first compound 0.1 µM
[14] = second compound 0.316 µM, first compound 0.316 µM
[15] = second compound 0.316 µM, first compound 1 µM
[16] = second compound 0.316 µM, first compound 3.16 µM
[17] = second compound 0.316 µM, first compound 10 µM
[18] = second compound 1 µM, first compound 0.0316 µM
[19] = second compound 1 µM, first compound 0.1 µM
[20] = second compound 1 µM, first compound 0.316 µM
[21] = second compound 1 µM, first compound 1 µM
[22] = second compound 1 µM, first compound 3.16 µM
[23] = second compound 1 µM, first compound 10 µM
[24] = second compound 3.16 µM, first compound 0.0316 µM
[25] = second compound 3.16 µM, first compound 0.1 µM
[26] = second compound 3.16 µM, first compound 0.316 µM
[27] = second compound 3.16 µM, first compound 1 µM
[28] = second compound 3.16 µM, first compound 3.16 µM
[29] = second compound 3.16 µM, first compound 10 µM
[30] = second compound 10 µM, first compound 0.0316 µM
[31] = second compound 10 µM, first compound 0.1 µM
[32] = second compound 10 µM, first compound 0.316 µM
[33] = second compound 10 µM, first compound 1 µM
[34] = second compound 10 µM, first compound 3.16 µM
[35] = second compound 10 µM, first compound 10 µM
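Also: spheroids exposed to agents for seven days before reading.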
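For viability, T/C in this document: 100% = DMSO vehicle wells so lower means fewer viable cells.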

COc1cc(Nc2ncc3c(n2)-c2ccc(Cl)cc2C(c2c(F)cccc2OC)=NC3)ccc1C(=O)O + COc1cc2nc(C)nc(NC(C)c3cc(N)cc(C(F)(F)F)c3)c2cc1OC1CCOC1
IC50 [1]: < 31.6 nM | IC50 [2]: < 31.6 nM | IC50 [3]: < 31.6 nM | IC50 [4]: < 31.6 nM | IC50 [5]: < 31.6 nM | viability, T/C [6]: 17.7% | viability, T/C [7]: 12.6% | viability, T/C [8]: 9.32% | viability, T/C [9]: 9.41% | viability, T/C [10]: 13.8% | viability, T/C [11]: 12.8% | viability, T/C [12]: 16.1% | viability, T/C [13]: 11.8% | viability, T/C [14]: 12.2% | viability, T/C [15]: 9.86% | viability, T/C [16]: 12.5% | viability, T/C [17]: 12.2% | viability, T/C [18]: 13.3% | viability, T/C [19]: 10.3% | viability, T/C [20]: 13.1% | viability, T/C [21]: 10.5% | viability, T/C [22]: 11.7% | viability, T/C [23]: 11.5% | viability, T/C [24]: 13.1% | viability, T/C [25]: 10.9% | viability, T/C [26]: 9.78% | viability, T/C [27]: 9.93% | viability, T/C [28]: 10.5% | viability, T/C [29]: 10.5% | viability, T/C [30]: 8.09% | viability, T/C [31]: 8.45% | viability, T/C [32]: 5.81% | viability, T/C [33]: 4.52% | viability, T/C [34]: 8.87% | viability, T/C [35]: 4.93%

Cn1ncnc1[C@H]1c2n[nH]c(=O)c3cc(F)cc(c23)N[C@@H]1c1ccc(F)cc1
viability, T/C (compound 0.000316 µM): 103% [middle of 5 runs] | viability, T/C (compound 0.001 µM): 99% [middle of 5 runs] | viability, T/C (compound 0.00316 µM): 94.2% [middle of 5 runs] | viability, T/C (compound 0.01 µM): 81.5% [middle of 5 runs] | viability, T/C (compound 0.0316 µM): 42.4% [middle of 5 runs] | viability, T/C (compound 0.1 µM): 22.4% [middle of 5 runs] | IC50 (curve of compound): 25.3 nM [middle of 5 runs]

C=CC(=O)N1CCN(c2nc(OCC3CCCN3C)nc3c2CCN(c2cccc4cccc(C)c24)C3)CC1CC#N (centres undefined)
viability, T/C (compound 0.316 µM): 57.6% [middle of 16 runs] | viability, T/C (compound 1 µM): 49.2% [middle of 17 runs]

COc1cc2nccc(Oc3ccc(NC(=O)C4(C(=O)Nc5ccc(F)cc5)CC4)cc3)c2cc1OC
viability, T/C (compound 0.0316 µM): 95.8% [middle of 5 runs] | viability, T/C (compound 0.1 µM): 94.9% [middle of 5 runs] | viability, T/C (compound 0.316 µM): 97.2% [middle of 5 runs]

COc1cc(Nc2ncc3c(n2)-c2ccc(Cl)cc2C(c2c(F)cccc2OC)=NC3)ccc1C(=O)O + C=CC(=O)N1CCN(c2nc(=O)n(-c3c(C)ccnc3C(C)C)c3nc(-c4c(O)cccc4F)c(F)cc23)C(C)C1
IC50 [1]: < 31.6 nM | IC50 [2]: < 31.6 nM | IC50 [3]: < 31.6 nM | IC50 [4]: < 31.6 nM | IC50 [5]: < 31.6 nM | viability, T/C [6]: 12.1% | viability, T/C [7]: 9.76% | viability, T/C [8]: 10.6% | viability, T/C [9]: 12.4% | viability, T/C [10]: 12.6% | viability, T/C [11]: 9.6% | viability, T/C [12]: 10.1% | viability, T/C [13]: 11.5% | viability, T/C [14]: 11.1% | viability, T/C [15]: 9.91% | viability, T/C [16]: 13.6% | viability, T/C [17]: 10.8% | viability, T/C [18]: 10.6% | viability, T/C [19]: 12% | viability, T/C [20]: 10.6% | viability, T/C [21]: 10.7% | viability, T/C [22]: 12.5% | viability, T/C [23]: 11.3% | viability, T/C [24]: 9.6% | viability, T/C [25]: 11.2% | viability, T/C [26]: 10.2% | viability, T/C [27]: 11.9% | viability, T/C [28]: 12.6% | viability, T/C [29]: 10.9% | viability, T/C [30]: 9.5% | viability, T/C [31]: 13.1% | viability, T/C [32]: 12.6% | viability, T/C [33]: 12.4% | viability, T/C [34]: 15.2% | viability, T/C [35]: 11.9%

CC(=O)Nc1cccc(-n2c(=O)n(C3CC3)c(=O)c3c(Nc4ccc(I)cc4F)n(C)c(=O)c(C)c32)c1
viability, T/C (compound 0.0001 µM): 97.2% [middle of 5 runs] | viability, T/C (compound 0.000316 µM): 92.1% [middle of 5 runs] | viability, T/C (compound 0.001 µM): 75.5% [middle of 5 runs] | viability, T/C (compound 0.00316 µM): 63.5% [middle of 5 runs] | viability, T/C (compound 0.01 µM): 56.3% [middle of 5 runs] | viability, T/C (compound 0.0316 µM): 36.9% [middle of 5 runs] | IC50 (curve of compound): 11.7 nM [middle of 5 runs]

CC1(C)CCC(CN2CCN(c3ccc(C(=O)NS(=O)(=O)c4ccc(NCC5CCOCC5)c([N+](=O)[O-])c4)c(Oc4cnc5[nH]ccc5c4)c3)CC2)=C(c2ccc(Cl)cc2)C1
viability, T/C (compound 0.0316 µM): 101% [middle of 5 runs] | viability, T/C (compound 0.1 µM): 98.9% [middle of 5 runs] | viability, T/C (compound 0.316 µM): 99.3% [middle of 5 runs] | viability, T/C (compound 1 µM): 97.8% [middle of 5 runs] | viability, T/C (compound 3.16 µM): 74.3% [middle of 5 runs] | viability, T/C (compound 10 µM): 15.3% [middle of 5 runs] | IC50 (curve of compound): 4.81 µM [middle of 5 runs]

CCNC(=O)CC1N=C(c2ccc(Cl)cc2)c2cc(OC)ccc2-n2c(C)nnc21 (centres undefined) + C=CC(=O)N1CCN(c2nc(OCC3CCCN3C)nc3c2CCN(c2cccc4cccc(C)c24)C3)CC1CC#N
IC50 (curve of first compound, second compound 0.0316 µM): 657 nM | IC50 [1]: 218 nM | IC50 [3]: < 31.6 nM | IC50 [4]: < 31.6 nM | viability, T/C (second compound 0.0316 µM, first compound 0.0316 µM): 72.8% | viability, T/C (second compound 0.0316 µM, first compound 0.1 µM): 75.9% | viability, T/C (second compound 0.0316 µM, first compound 0.316 µM): 51.8% | viability, T/C (second compound 0.0316 µM, first compound 1 µM): 47.1% | viability, T/C (second compound 0.0316 µM, first compound 3.16 µM): 36.5% | viability, T/C (second compound 0.0316 µM, first compound 10 µM): 27% | viability, T/C [6]: 55.9% | viability, T/C [7]: 58.4% | viability, T/C [8]: 46.2% | viability, T/C [9]: 36.9% | viability, T/C [10]: 31.9% | viability, T/C [11]: 22.4% | viability, T/C [18]: 48.8% | viability, T/C [19]: 41.7% | viability, T/C [20]: 36.4% | viability, T/C [21]: 27.9% | viability, T/C [22]: 25.1% | viability, T/C [23]: 18.9% | viability, T/C [24]: 1.66% | viability, T/C [25]: 2.31% | viability, T/C [26]: 1.02% | viability, T/C [27]: 0.22% | viability, T/C [28]: 2.19% | viability, T/C [29]: 0.39%

CCNC(=O)CC1N=C(c2ccc(Cl)cc2)c2cc(OC)ccc2-n2c(C)nnc21 (centres undefined) + C=CC(=O)N1CCN(c2nc(=O)n(-c3c(C)ccnc3C(C)C)c3nc(-c4c(O)cccc4F)c(F)cc23)C(C)C1
IC50 [1]: 253 nM | IC50 [2]: 103 nM | IC50 [3]: 154 nM | IC50 [4]: 117 nM | IC50 [5]: < 31.6 nM | viability, T/C [6]: 58.2% | viability, T/C [7]: 58.7% | viability, T/C [8]: 45.8% | viability, T/C [9]: 40.4% | viability, T/C [10]: 29.7% | viability, T/C [11]: 24.3% | viability, T/C [12]: 55.6% | viability, T/C [13]: 50.7% | viability, T/C [14]: 45.7% | viability, T/C [15]: 33.5% | viability, T/C [16]: 28.6% | viability, T/C [17]: 22.3% | viability, T/C [18]: 60.4% | viability, T/C [19]: 51.2% | viability, T/C [20]: 51.1% | viability, T/C [21]: 33.7% | viability, T/C [22]: 26.2% | viability, T/C [23]: 22.7% | viability, T/C [24]: 55.4% | viability, T/C [25]: 48.9% | viability, T/C [26]: 46.3% | viability, T/C [27]: 35.8% | viability, T/C [28]: 26.5% | viability, T/C [29]: 19.1% | viability, T/C [30]: 41.6% | viability, T/C [31]: 43.3% | viability, T/C [32]: 33.2% | viability, T/C [33]: 26.9% | viability, T/C [34]: 23.5% | viability, T/C [35]: 17.9%

CCNC(=O)CC1N=C(c2ccc(Cl)cc2)c2cc(OC)ccc2-n2c(C)nnc21 (centres undefined) + COc1cc2nc(C)nc(NC(C)c3cc(N)cc(C(F)(F)F)c3)c2cc1OC1CCOC1
IC50 [1]: 459 nM | IC50 [2]: 420 nM | IC50 [3]: 352 nM | IC50 [4]: 189 nM | IC50 [5]: 172 nM | viability, T/C [6]: 84.7% | viability, T/C [7]: 81.5% | viability, T/C [8]: 59.2% | viability, T/C [9]: 30.5% | viability, T/C [10]: 21.1% | viability, T/C [11]: 20.4% | viability, T/C [12]: 74% | viability, T/C [13]: 69.1% | viability, T/C [14]: 57.6% | viability, T/C [15]: 27.5% | viability, T/C [16]: 23.2% | viability, T/C [17]: 24.2% | viability, T/C [18]: 75.6% | viability, T/C [19]: 75.2% | viability, T/C [20]: 52.7% | viability, T/C [21]: 22.6% | viability, T/C [22]: 20.4% | viability, T/C [23]: 18.2% | viability, T/C [24]: 75% | viability, T/C [25]: 56% | viability, T/C [26]: 47.2% | viability, T/C [27]: 26.5% | viability, T/C [28]: 20.6% | viability, T/C [29]: 21.7% | viability, T/C [30]: 63.7% | viability, T/C [31]: 52.7% | viability, T/C [32]: 46.4% | viability, T/C [33]: 23.6% | viability, T/C [34]: 19.5% | viability, T/C [35]: 13.9%
